Measurements as given in patent US20070212677A1, “Identifying off-target effects and hidden phenotypes of drugs in human cells” (Odyssey Thera, Inc., priority 2004, published 2007).
Entries after “also recorded” stand apart in the source; their conditions may differ. Blank lines part the entries; values can stand above or below the compound they belong to. Non-standard residues stand in square brackets, D forms with d. Residues, ends and D or L forms follow the SMILES beside them. Nle = CCCC[C@H](N)C(=O)O

Key:
Akt1:Pdk1 = Akt1:Pdk1 PCA; settings: for Akt:Pdk1 complexes: 90 and 480 minutes after treatment
Akt1:p27 = Akt1:p27 PCA; settings: for Akt:p27 complexes: 90 and 480 minutes after treatment
cyclinD1:Cdk4 = test: CyclinD1:Cdk4 PCA; format: cell-based, human; settings: eight hours of treatment
H-Ras:Raf-1 = H-Ras:Raf-1 PCA; format: cell-based, human; settings: drug treatment, HEK293
beta-Arr2:beta2AR = beta-Arr2:beta2AR (Homo sapiens, UniProt P07550); test: beta-Arr2:beta2AR PCA (with or without ISO); format: cell-based
Pin1:Jun = Pin1:Jun PCA; format: cell-based, human; settings: for effect on Pin1:Jun assay: statins, FIG. 19B
phospho-CREB = phospho-CREB (Ser133) immunofluorescence, high-content imaging in HEK293 cells; format: cell-based, human
Protocol: (§1) We assessed the effects of the above-mentioned compounds on the three pathways and used the results to construct pharmacological profiles for the agents. Human cells (HEK293) were treated with drugs and the phosphorylation status of the three downstream proteins was assessed in the absence or presence of epidermal growth factor (EGF). Cells were then fixed and probed with antisera generated against the phosphorylated forms of CREB (S133), ERK1/2 (phospho T*EY*), or phospho Hsp27 (S78/S82). The ERK1/2 antibodies specifically recognize the MAPK/ERK1 and MAPK/ERK2 protein kinases only when they are phosphorylated on Threonine 202 and Tyrosine 204 in the activation loop. […] Changes in the level and sub-cellular localization of a phosphorylated protein following treatment with a drug would indicate a functional connection between the drug and the pathway of interest.
Details of the methods used are as follows. HEK293T cells were seeded in black-walled, poly-lysine coated 96-well plates (Greiner) at a density of 30,000/well. […]
(§2) Images were acquired using a Discovery-1 High Content Imaging System (Molecular Devices). Background fluorescence due to nonspecific binding by the secondary antibody was established with the use of cells that were incubated with BSA/PBS and without primary antibodies. […]

phospho-ERK = phospho-ERK (T202/Y204) immunofluorescence, high-content imaging in HEK293 cells; format: cell-based, human; settings: for EGF-stimulated ERK phosphorylation: drug 90 min, hEGF during last 5 min
Protocol: as §1
(§3) Details of the methods used are as follows. HEK293T cells were seeded in black-walled, poly-lysine coated 96-well plates (Greiner) at a density of 30,000/well. After 24 hours, cells in duplicate wells were treated with combinations of different drugs and stimulus as follows: (a) 20 micromolar PD98059, micromolar SB203580, or vehicle alone for 90 minutes; and (b) as for (a), but with 100 ng/ml hEGF added to the cells during the last 5 min of drug treatment. The drugs were purchased from Calbiochem and hEGF was from Roche. Four sets of cells treated as described were prepared. The cells were rinsed once with PBS and fixed with 4% formaldehyde for 10 min. The cells were subsequently permeabilized with 0.25% Triton X-100 in PBS and incubated with 3% BSA for 30 min to block non-specific antibody binding. […]
as §2

phospho-Hsp27 = phospho-Hsp27 immunofluorescence, high-content imaging in HEK293 cells; format: cell-based, human; settings: for EGF-induced Hsp27 phosphorylation: drug 90 min, hEGF during last 5 min
Protocol: as §1, §3, §2

PPAR-gamma:SRC-1 = target: T1, PPAR-gamma:SRC-1 (Homo sapiens, UniProt P37231); test: PPAR-gamma:SRC-1 PCA; format: cell-based; settings: serum-starved HEK293; for effect on PPAR-gamma:SRC-1 PCA: drug 6.5 hours prior to rosiglitazone 1.5 hours, FIG. 24B, C
T1 sequence (P37231 1-477 isoform P37231-2): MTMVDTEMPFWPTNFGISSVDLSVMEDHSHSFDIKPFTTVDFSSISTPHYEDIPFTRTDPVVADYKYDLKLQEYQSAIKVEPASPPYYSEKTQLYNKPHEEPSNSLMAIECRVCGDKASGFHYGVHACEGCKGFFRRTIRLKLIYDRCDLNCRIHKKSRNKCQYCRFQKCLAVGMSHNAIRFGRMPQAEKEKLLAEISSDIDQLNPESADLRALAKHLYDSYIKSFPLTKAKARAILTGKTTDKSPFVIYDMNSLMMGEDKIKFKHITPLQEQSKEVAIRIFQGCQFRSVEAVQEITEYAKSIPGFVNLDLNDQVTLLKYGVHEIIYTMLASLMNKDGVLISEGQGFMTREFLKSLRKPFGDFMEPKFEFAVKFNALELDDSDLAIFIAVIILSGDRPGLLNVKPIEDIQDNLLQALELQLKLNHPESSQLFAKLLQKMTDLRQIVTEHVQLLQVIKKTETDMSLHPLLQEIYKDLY

CDKN1A(p21):Cdc2 = test: Cdc2:p21 PCA; settings: statins
MAPK1:MKNK1 = test: Mknk1:Mapk1 PCA; settings: 480 minutes; bar 27
ELK: MAPK1 = test: Elk1:Mapk1 PCA; settings: 480 minutes; FIG. 17 bar 20
Cofilin:Limk2 = Cofilin:Limk2 PCA; settings: drug treatment, HEK293

Compound: C=CCNC1=C2C[C@@H](C)C[C@H](OC)[C@H](O)[C@@H](C)/C=C(\C)[C@H](OC(N)=O)[C@@H](OC)/C=C\C=C(/C)C(=O)NC(=CC1=O)C2=O [17-AAG, 17-(allylamino)-17-demethoxygeldanamycin]
Akt:Pdk1 complexes (Akt1:Pdk1): negatively regulated | Akt:p27 complexes (Akt1:p27): negatively regulated

Compound: CCCC[C@@H](C=O)NC(=O)[C@H](CC(C)C)NC(=O)[C@H](CC(C)C)NC(C)=O [ALLN] (Ac-Leu-Leu-[Nle]-aldehyde)
cyclinD1:Cdk4 complexes (cyclinD1:Cdk4): accumulation of this complex in the nucleus

Compound: Cc1ccc(S(=O)(=O)/C=C/C#N)cc1 [BAY 11-7082]
total Akt:Pdk1 complexes (Akt1:Pdk1; HEK293): not | HRas:Raf1 complex (H-Ras:Raf-1): inhibited | nuclear Akt:p27 complexes (Akt1:p27; HEK293): strongly inhibited

effect on βArr2:β2AR assay following isoproterenol stimulation (beta-Arr2:beta2AR; FIG. 19A, 2 μM ISO 30 min): no effect
Compound: CC(C)C[C@H](NC(=O)c1ccc(NCc2cnc[nH]2)cc1-c1cccc2ccccc12)C(=O)O [GGTI-2133]

Compound: CN(CCOc1ccc(C[C@H](Nc2ccccc2C(=O)c2ccccc2)C(=O)O)cc1)c1ccccn1 [GW1929]
effect on Pin1/Jun PCA (Pin1:Jun; PPARγ ligands, 480 minutes, FIG. 18): strong stimulation; also recorded: had an effect

effect on PPAR-gamma:SRC-1 PCA (PPAR-gamma:SRC-1): no appreciable effects
Compound: COc1cccc(-c2cc(=O)c3ccccc3o2)c1N [PD98059]
effect of EGF on phospho-CREB in presence of drug (phospho-CREB; 20 micromolar PD98059 90 min, hEGF during last 5 min): reduced | EGF-stimulated ERK phosphorylation (phospho-ERK): significantly blocked | EGF-induced Hsp27 phosphorylation (phospho-Hsp27): no effect

Compound: COc1cc2ncnc(Nc3cccc(Br)c3)c2cc1OC [PD 153035]
effect on PPAR-gamma:SRC-1 PCA (PPAR-gamma:SRC-1): no appreciable effects

increase of PPAR-gamma:SRC-1 complex (PPAR-gamma:SRC-1; drug 10 micromolar 6.5 hours prior to rosiglitazone 1.5 hours, p<0.0001 vs DMSO): 5 fold | effect on PPAR-gamma:SRC-1 PCA (PPAR-gamma:SRC-1): comparable to c-src siRNA
Compound: CC(C)(C)n1nc(-c2ccc(Cl)cc2)c2c(N)ncnc21 [PP2]

effect on PPAR-gamma:SRC-1 PCA (PPAR-gamma:SRC-1): did not mimic
Compound: Nc1ncnc2c1cnn2-c1ccccc1 [PP3]

Compound: C[S+]([O-])c1ccc(-c2nc(-c3ccc(F)cc3)c(-c3ccncc3)[nH]2)cc1 (stereo not drawn) [SB203580, 4-(4-fluorophenyl)-2-(4-methylsulfinylphenyl)-5-(4-pyridyl)1H-imidazole]
EGF-stimulated ERK phosphorylation (phospho-ERK): no effect | EGF-induced Hsp27 phosphorylation (phospho-Hsp27): blocked

Compound: CC(C)n1c(/C=C/C(O)CC(O)CC(=O)O)c(-c2ccc(F)cc2)c2ccccc21 (stereo not drawn) [fluvastatin]
effect on Pin1:Jun assay (Pin1:Jun): pronounced inhibitory activity; also recorded: inhibited

Compound: CC(C)c1nc(N(C)S(C)(=O)=O)nc(-c2ccc(F)cc2)c1/C=C/[C@@H](O)C[C@@H](O)CC(=O)O [rosuvastatin]
effect on Pin1:Jun assay (Pin1:Jun): little activity | activity on CDKN1A(p21):Cdc2 assay (CDKN1A(p21):Cdc2): activity opposite from the other statins

Compound: EGF: epidermal growth factor; hEGF from Roche
formation of phospho-CREB (phospho-CREB; 100 ng/ml hEGF, 5 min): induced | ERK/MAP kinase phosphorylation (phospho-ERK; 100 ng/ml hEGF, 5 min): highly induced | phospho-Hsp27 (phospho-Hsp27; 100 ng/ml hEGF, 5 min): increased

activity on adrenergic GPCR assays (beta-Arr2:beta2AR; 480 minutes, FIG. 17 bars 3 & 4): no activity
Compound: TRAIL: protein cytokine, a TNF-alpha-family ligand
MAPK1:MKNK1 assay (MAPK1:MKNK1): strongly induced | ELK: MAPK1 assay (ELK: MAPK1): strongly induced

Compound: indirubin-3′-monoxime
Limk2:cofilin complexes (Cofilin:Limk2): almost completely eliminated | Akt:Pdk1 complexes (Akt1:Pdk1): negatively regulated | Akt:p27 complexes (Akt1:p27): negatively regulated
